Measured values reported in ChEMBL document CHEMBL1128313, “In vitro muscarinic activity of spiromuscarones and related analogs” (J Med Chem, 1995).
Activity calls are given as the source filed them. The rule behind the calls is not given here.

Organism: Rattus norvegicus
Assay: The compound was tested for maximum stimulation of PI (phosphatidyl inositol) in rat hippocampal tissue, activity is expressed as percent of carbachol response; Inactive
Format: functional
Details: Hippocampus
`CC1OC2(CCN(C)CC2)C2SCCSC12` (stereo unspecified) was tested, and the Max stimulation was “inactive”. For `CC1OC2(CCN(C)CC2)C2OCCOC12` (stereo unspecified), the Max stimulation was “inactive”.

These compounds were tested against Muscarinic acetylcholine receptor. Details: not given.
`CC1OC2(CCN(C)CC2)CC1O` (stereo unspecified) gave a Ki of 141 µM. `CC1OC2(CCN(C)CC2)CC1=O` (stereo unspecified) was tested, and the Ki was 2.68 µM. `CC(=O)O/N=C1\COC2(CCN(C)CC2)C1.O=C(O)/C=C\C(=O)O.O=C(O)C(=O)O` showed a Ki of 44.8 µM. In the case of `CC1OC2(CCN(C)CC2)CC1O.Cl` (stereo unspecified), the Ki is reported as 430 µM. With `CC1CC(O)C2(CCN(C)CC2)O1` (stereo unspecified) the Ki was 30 µM. `CC1CC(=O)C2(CCN(C)CC2)O1` (stereo unspecified) gave a Ki of 33 µM. Work on `CCC(=O)O/N=C1\COC2(CCN(C)CC2)C1.O=C(O)/C=C\C(=O)O.O=C(O)C(=O)O` yielded a Ki of 38.1 µM. `CC(=O)OC1COC2(CCN(C)CC2)C1` (stereo unspecified) was tested, and the Ki was 98.7 µM. Compound `CC1OC2(CCN(C)CC2)C/C1=N\O` (stereo unspecified) has a Ki of 1.63 µM.
